Source: ChEMBL document CHEMBL4138120, “Modification of C-seco taxoids through ring tethering and substituent replacement leading to effective agents against tumor drug resistance mediated by βIII-Tubulin and P-glycoprotein (P-gp) overexpressions” (Eur J Med Chem, 2017)

Columns and labels:
[1] = Resistance index, ratio of IC50 for human Hela-beta3 cells to IC50 for human HeLa cells; type: functional
HeLa [2] = assay: Cytotoxicity against human HeLa cells assessed as decrease in cell viability after 48 hrs by MTT assay; type: functional, cell-based
Bos taurus [3] = organism: Bos taurus; assay: Displacement of Flutax-2 from calf brain microtubule after 20 mins by fluorescence polarization assay relative to paclitaxel
A2780 = assay: Cytotoxicity against human A2780 cells assessed as decrease in cell viability after 48 hrs by MTT assay; type: functional, cell-based; conditions: A2780, 48 h
[4] = Resistance index, ratio of IC50 for human A2780AD cells to IC50 for human A2780 cells; type: functional
[5] = Cytotoxicity against human Hela-beta3 cells assessed as decrease in cell viability after 48 hrs by MTT assay; type: functional, cell-based
[6] = Cytotoxicity against human A2780AD cells assessed as decrease in cell viability after 48 hrs by MTT assay; type: functional, cell-based
KB = assay: Cytotoxicity against human KB cells assessed as decrease in cell viability after 48 hrs by MTT assay; type: functional, cell-based
[7] = Cell cycle arrest in human Hela-beta3 cells assessed as concentration at which maximal accumulation at G2/M phase after 20 hrs by propidium iodide staining-based flow cytometric method; type: functional
HeLa [8] = assay: Cell cycle arrest in human HeLa cells assessed as concentration at which maximal accumulation at G2/M phase after 20 hrs by propidium iodide staining-based flow cytometric method; type: functional
Bos taurus [9] = organism: Bos taurus; assay: Induction of calf brain microtubule assembly assessed as concentration of unassembled tubulin at 25 uM incubated for 45 mins by spectrophotometric method (reference value: >20 uM)
[10] = Resistance index, ratio of IC50 for human KBV1 cells to IC50 for human KB cells; type: functional
KB-V1 = assay: Cytotoxicity against human KBV1 cells assessed as decrease in cell viability after 48 hrs by MTT assay; type: functional, cell-based; conditions: KB-V1, 48 h
[11] = Potency index, ratio of paclitaxel IC50 to test compound IC50 for human A2780AD cells; type: functional
HeLa [12] = assay: Ratio of IC50 for human HeLa cells harboring beta-3 tubulin siRNA to IC50 for human HeLa cells; type: functional
[13] = Cytotoxicity against human Hela-beta3 cells assessed as decrease in cell viability after 48 hrs in presence of beta-3 tubulin siRNA by MTT assay; type: functional, cell-based

| Structure (SMILES) | Ratio IC50 [1] | IC50 (HeLa [2]) [nM] | fold change (FC) (Bos taurus [3]) | IC50 (A2780) [nM] | Ratio IC50 [4] | IC50 [5] [nM] | IC50 [6] [nM] | IC50 (KB) [nM] | Activity [7] [nM] | Activity (HeLa [8]) [nM] | Unassembled tubulin concentration (Bos taurus [9]) [µM] | Ratio IC50 [10] | IC50 (KB-V1) [nM] | Ratio IC50 [11] | Ratio IC50 (HeLa [12]) | IC50 [13] [nM] |
| --- | --- | --- | --- | --- | --- | --- | --- | --- | --- | --- | --- | --- | --- | --- | --- | --- |
| CC(=O)O[C@@]12CO[C@@H]1CCOC/C=C/CO/C1=C(\C)[C@@H]2[C@H](OC(=O)c2ccccc2)[C@]2(O)C[C@H](OC(=O)[C@H](O)[C@@H](NC(=O)c3ccccc3)c3ccccc3)C(C)=C(C1=O)C2(C)C | 7.5 | 3.5 | 0.96 | 22.3 | 77.1 | 26 | 1720 | – | – | – | – | – | – | – | – | – |
| CC(=O)O[C@@]12CO[C@@H]1CCOCCCCCCO/C1=C(\C)[C@@H]2[C@H](OC(=O)c2ccccc2)[C@]2(O)C[C@H](OC(=O)[C@H](O)[C@@H](NC(=O)c3ccccc3)c3ccccc3)C(C)=C(C1=O)C2(C)C | 5.3 | 22 | 0.61 | – | – | 118 | – | – | – | – | – | – | – | – | – | – |
| CC(=O)O[C@@]12CO[C@@H]1CCOCCCCO/C1=C(\C)[C@@H]2[C@H](OC(=O)c2ccccc2)[C@]2(O)C[C@H](OC(=O)[C@H](O)[C@@H](NC(=O)c3ccccc3)c3ccccc3)C(C)=C(C1=O)C2(C)C | 6.9 | 8 | 0.89 | – | – | 58 | – | – | – | – | – | – | – | – | – | – |
| CC(=O)O[C@@]1([C@@H]2/C(C)=C(/O)C(=O)C3=C(C)[C@@H](OC(=O)[C@H](O)[C@@H](NC(=O)c4ccccc4)c4ccccc4)C[C@@](O)([C@H]2OC(=O)c2ccccc2)C3(C)C)CO[C@@H]1CCO | 15.6 | 192 | 0.1 | 282 | >35.4 | 2980 | > 10000 | – | – | – | – | – | – | – | – | – |
| CC(=O)O[C@@]1([C@@H]2/C(C)=C(/O)C(=O)C3=C(C)[C@@H](OC(=O)[C@H](O)[C@@H](NC(=O)c4ccccc4)c4ccccc4)C[C@@](O)([C@H]2OC(=O)c2cccc(N=[N+]=[N-])c2)C3(C)C)CO[C@@H]1CCO | 209 | 1 | 1.18 | 1.6 | – | 209 | > 5000 | 5.1 | 20 | 55 | 3.82 | 1000 | 5100 | – | – | – |
| CC(=O)O[C@@]12CO[C@@H]1CCOC/C=C/CCO/C1=C(\C)[C@@H]2[C@H](OC(=O)c2ccccc2)[C@]2(O)C[C@H](OC(=O)[C@H](O)[C@@H](NC(=O)c3ccccc3)c3ccccc3)C(C)=C(C1=O)C2(C)C | 5.7 | 27.9 | 0.23 | – | – | 158 | – | – | – | – | – | – | – | – | – | – |
| COc1cccc(C(=O)O[C@H]2[C@H]([C@]3(OC(C)=O)CO[C@@H]3CCO)/C(C)=C(/O)C(=O)C3=C(C)[C@@H](OC(=O)[C@H](O)[C@H](CC(C)C)NC(=O)OC(C)(C)C)C[C@]2(O)C3(C)C)c1 | 33.6 | 2.1 | 1.28 | 5.1 | 279 | 72 | 1420 | 2.9 | 25 | 80 | 16.6 | 1172 | 3400 | – | – | – |
| CC(=O)O[C@@]12CO[C@@H]1CCOC/C=C\CCO/C1=C(\C)[C@@H]2[C@H](OC(=O)c2ccccc2)[C@]2(O)C[C@H](OC(=O)[C@H](O)[C@@H](NC(=O)c3ccccc3)c3ccccc3)C(C)=C(C1=O)C2(C)C | 5.1 | 6.7 | 0.96 | 25.1 | 87.4 | 34 | 2190 | – | – | – | – | – | – | – | – | – |
| COCC[C@H]1OC[C@@]1(OC(C)=O)[C@@H]1/C(C)=C(/O)C(=O)C2=C(C)[C@@H](OC(=O)[C@H](O)[C@@H](NC(=O)c3ccccc3)c3ccccc3)C[C@@](O)([C@H]1OC(=O)c1ccccc1)C2(C)C | 7.6 | 30 | – | – | – | 226 | – | – | – | – | – | – | – | – | – | – |
| CO/C1=C(\C)[C@@H]([C@]2(OC(C)=O)CO[C@@H]2CCO)[C@H](OC(=O)c2ccccc2)[C@]2(O)C[C@H](OC(=O)[C@H](O)[C@@H](NC(=O)c3ccccc3)c3ccccc3)C(C)=C(C1=O)C2(C)C | 12.3 | 312 | – | – | – | 3840 | – | – | – | – | – | – | – | – | – | – |
| CC(=O)O[C@@]12CO[C@@H]1CCOCCCCCO/C1=C(\C)[C@@H]2[C@H](OC(=O)c2ccccc2)[C@]2(O)C[C@H](OC(=O)[C@H](O)[C@@H](NC(=O)c3ccccc3)c3ccccc3)C(C)=C(C1=O)C2(C)C | 6 | 3.3 | 1.3 | 25.4 | 55 | 13.3 to 20 | 1400 | – | – | – | – | – | – | 2 - 3 | 1.5 | 5.2 |
| CC(=O)O[C@@]12CO[C@@H]1CCOC/C=C/CO/C1=C(\C)[C@@H]2[C@H](OC(=O)c2cccc(N=[N+]=[N-])c2)[C@]2(O)C[C@H](OC(=O)[C@H](O)[C@@H](NC(=O)c3ccccc3)c3ccccc3)C(C)=C(C1=O)C2(C)C | 64 | 0.7 | 1.15 | 2.8 | 11.4 | 45 | 32 | 15 | 15 | 25 | 2.34 | 6.2 | 94 | – | – | – |
| CC(=O)O[C@@]1([C@@H]2/C(C)=C(/O)C(=O)C3=C(C)[C@@H](OC(=O)[C@H](O)[C@H](CC(C)C)NC(=O)OC(C)(C)C)C[C@@](O)([C@H]2OC(=O)c2ccccc2)C3(C)C)CO[C@@H]1CCO | 10 | 3.3 | 0.132 | 4.3 | 207 | 33 | 893 | 6.6 | 15 | 15 | 3.2 | 38.7 | 255 | – | – | – |
| CC(=O)O[C@@]1([C@@H]2/C(C)=C(/O)C(=O)C3=C(C)[C@@H](OC(=O)[C@H](O)[C@H](CC(C)C)NC(=O)OC(C)(C)C)C[C@@](O)([C@H]2OC(=O)c2cccc(N=[N+]=[N-])c2)C3(C)C)CO[C@@H]1CCO | 21 | 0.9 | 2.17 | 4.1 | 23.4 | 19 | 96 | 5.2 | 10 | 20 | 3.63 | 97 | 503 | – | – | – |
| CC(=O)O[C@H]1C(=O)[C@@]2(C)[C@H]([C@H](OC(=O)c3ccccc3)[C@]3(O)C[C@H](OC(=O)[C@H](O)[C@@H](NC(=O)c4ccccc4)c4ccccc4)C(C)=C1C3(C)C)[C@]1(OC(C)=O)CO[C@@H]1C[C@@H]2O [PACLITAXEL] | 19.6 - 31.8 | 1.1 to 1.3 | – | 1.07 to 6 | 759 - 1198 | 19.7 to 34 | 1280 to 4550 | 1.9 | 15 | 35 | 5.36 | 5157 | 9800 | – | 4 | 9 |
| CC(=O)O[C@@]12CO[C@@H]1CCOC/C=C/CCCO/C1=C(\C)[C@@H]2[C@H](OC(=O)c2ccccc2)[C@]2(O)C[C@H](OC(=O)[C@H](O)[C@@H](NC(=O)c3ccccc3)c3ccccc3)C(C)=C(C1=O)C2(C)C | 2.2 | 126 | 0.17 | – | – | 282 | – | – | – | – | – | – | – | – | – | – |
